Measured values: US20060235036A1, “Vanilloid receptor ligands and their use in treatments” (priority 2005, published 2006)
Where a name gives a salt, the structure may show the parent alone.

Molecular target: T1, human VR1 (Homo sapiens, UniProt Q8NER1)
T1 construct: expressed in transfected cells
Experiment: Human VR1 Capsaicin Antagonist Assay (45Ca2+ uptake, CHO cells stably expressing human VR1)
Assay type: cell-based
Details: capsaicin stimulus, Calcium-45 uptake
Protocol: Compounds may be assayed using Chinese Hamster Ovary cell lines stably expressing either human VR1 or rat VR1 under a CMV promoter. Cells can be cultured in Growth Medium, routinely passaged at 70% confluency using trypsin and plated in the assay plate 24 hours prior to compound evaluation. Possible Growth Medium: • DMEM, high glucose (Gibco 11965-084). • 10% Dialyzed serum (Hyclone SH30079.03). • 1× Non-Essential Amino Acids (Gibco 11140-050). • 1× Glutamine-Pen-Strep (Gibco 10378-016). • Geneticin, 450 μg/mL (Gibco 10131-035). Compounds can be diluted in 100% DMSO and tested for activity over several log units of concentration [40 μM-2 pM]. Compounds may be further diluted in HBSS buffer (pH 7.4) 0.1 mg/mL BSA, prior to evaluation. Final DMSO concentration in assay would be 0.5%. Each assay plate can be controlled with a buffer only and a known antagonist compound (either capsazepine or one of the described VR1 antagonists). Activation of VR1 can be achieved in these cellular assays using either a capsaicin stimulus (ranging from 0.1-1 μM) or by an acid stimulus (addition of 30 mM Hepes/Mes buffered at pH 4.1). Compounds may also tested in an assay format to evaluate their agonist properties at VR1. • Capsaicin Antagonist Assay: Compounds may be pre-incubated with cells (expressing either human or rat VR1) for 2 minutes prior to addition of Calcium-45 and Capsaicin and then left for an additional 2 minutes prior to compound washout. Capsaicin (0.5 […]) can be added in HAM's F12, 0.1 mg/mL BSA, 15 mM Hepes at pH 7.4. Final ^45Ca (Amersham CES3-2 mCi) at 10 μCi/mL. • Acid Antagonist Assay: Compounds can be pre-incubated with cells (expressing either human or rat VR1) for 2 minutes prior to addition of Calcium-45 in 30 mM Hepes/Mes buffer (Final Assay pH 5) and then left for an additional 2 minutes prior to compound washout. Final ^45Ca (Amersham CES3-2 mCi) at 10 μCi/mL. • Agonist Assay: Compounds can be incubated with cells (expressing either human or rat VR1) for 2 minutes in the presence of Calcium-45 prior to compound washout. Final ^45Ca (Amersham CES3-2 mCi) at 10 μCi/mL. • Compound Washout and Analysis: Assay plates can be washed using an ELX405 plate washer (Bio-Tek Instruments Inc.) immediately after functional assay. One can wash 3× with PBS Mg2^+/Ca^2+ free, 0.1 mg/mL BSA, aspirating between washes. Plates may be read using a MicroBeta Jet (Wallac Inc.). Compound activity may then calculated using appropriate computational algorithms.

T1 sequence (Q8NER1 whole entry): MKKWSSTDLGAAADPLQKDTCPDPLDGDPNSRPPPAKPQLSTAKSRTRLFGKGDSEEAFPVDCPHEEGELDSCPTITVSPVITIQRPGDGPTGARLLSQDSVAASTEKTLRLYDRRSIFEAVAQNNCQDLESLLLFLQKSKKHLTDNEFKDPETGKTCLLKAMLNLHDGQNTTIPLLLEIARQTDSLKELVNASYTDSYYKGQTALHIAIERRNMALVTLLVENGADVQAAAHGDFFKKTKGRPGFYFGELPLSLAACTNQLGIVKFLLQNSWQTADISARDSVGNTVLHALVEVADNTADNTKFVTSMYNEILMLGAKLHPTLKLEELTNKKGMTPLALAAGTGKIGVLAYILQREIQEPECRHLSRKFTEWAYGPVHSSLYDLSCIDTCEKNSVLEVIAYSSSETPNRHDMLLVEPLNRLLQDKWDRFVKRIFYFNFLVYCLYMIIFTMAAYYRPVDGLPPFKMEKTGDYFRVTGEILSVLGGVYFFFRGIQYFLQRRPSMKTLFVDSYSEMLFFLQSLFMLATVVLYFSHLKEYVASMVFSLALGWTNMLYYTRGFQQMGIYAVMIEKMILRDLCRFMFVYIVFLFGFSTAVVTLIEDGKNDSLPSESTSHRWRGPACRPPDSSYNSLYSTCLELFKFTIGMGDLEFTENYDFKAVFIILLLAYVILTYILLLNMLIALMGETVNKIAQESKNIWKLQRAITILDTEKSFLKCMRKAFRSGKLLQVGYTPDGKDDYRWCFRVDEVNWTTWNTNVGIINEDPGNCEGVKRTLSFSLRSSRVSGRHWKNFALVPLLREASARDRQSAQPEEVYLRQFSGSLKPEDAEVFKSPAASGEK

Row | SMILES | IC50
1 | CC(C)CN1CCCCC1CNc1nc(C(F)(F)F)ccc1-c1cc(Nc2cccc3c2CC(O)CC3)ncn1 (mixture of isomers) [Example 1, (2R,S)-8-(6-(2-(((2R,S)-1-Isobutylpiperidin-2-yl)methylamino)-6-(trifluoro-methyl)pyridin-3-yl)pyrimidin-4-ylamino)-1,2,3,4-tetrahydronaphthalen-2-ol hydrochloride] | < 100 nM
2 | CC(C)(C)OC(=O)N1CCC[C@H]1C(=O)Nc1cc(C(F)(F)F)ccc1-c1cc(Nc2cccc3c2C[C@@H](O)CC3)ncn1 (mixture of isomers) [Example 2, (2S)-tert-Butyl 2-((2-(6-((7S)-7-hydroxy-5,6,7,8-tetrahydro-naphthalen-1-ylamino)pyrimidin-4-yl)-5-(trifluoromethyl)phenyl)-carbamoyl)-pyrrolidine-1-carboxylate and (2S)-tert-Butyl 2-((2-(6-((7S)-7-hydroxy-5,6,7,8-tetrahydro-naphthalen-1-ylamino)pyrimidin-4-yl)-5-(trifluoromethyl)phenyl)-carbamoyl)-pyrrolidine-1-carboxylate] | < 100 nM
3 | CC(C)N1CCC[C@H]1C(=O)Nc1cc(C(F)(F)F)ccc1-c1cc(Nc2cccc3c2C[C@@H](O)CC3)ncn1 (mixture of isomers) [Example 3, (2S)—N-(2-(6-(7S)-7-Hydroxy-5,6,7,8-tetrahydronaphthalen-1-ylamino)pyrimidin-4-yl)-5-(trifluoromethyl)phenyl)-1-isopropylpyrrolidine-2-carboxamide hydrochloride and (2S)—N-(2-(6-(7R)-7-Hydroxy-5,6,7,8-tetrahydro-naphthalen-1-ylamino)pyrimidin-4-yl)-5-(trifluoromethyl)phenyl)-1-isopropylpyrrolidine-2-carboxamide hydrochloride] | < 100 nM
4 | CC(C)N1CCC[C@H]1C(=O)Nc1cc(C(F)(F)F)ccc1-c1cc(Nc2cccc3c2C[C@H](O)CC3)ncn1 (mixture of isomers) [Example 3, (2S)—N-(2-(6-(7S)-7-Hydroxy-5,6,7,8-tetrahydronaphthalen-1-ylamino)pyrimidin-4-yl)-5-(trifluoromethyl)phenyl)-1-isopropylpyrrolidine-2-carboxamide hydrochloride and (2S)—N-(2-(6-(7R)-7-Hydroxy-5,6,7,8-tetrahydro-naphthalen-1-ylamino)pyrimidin-4-yl)-5-(trifluoromethyl)phenyl)-1-isopropylpyrrolidine-2-carboxamide hydrochloride] | < 100 nM
5 | CC1CC[C@@H](C(=O)Nc2cc(C(F)(F)F)ccc2-c2cc(Nc3cccc4c3CC(O)CC4)ncn2)N1 (mixture of isomers) [Example 4, (2S, 5R,S, 7R,S)—N-(2-(6-(7-Hydroxy-5,6,7,8-tetrahydronaphthalen-1-ylamino)pyrimidin-4-yl)-5-(trifluoromethyl)phenyl)-5-methylpyrrolidine-2-carboxamide hydrochloride] | < 100 nM
6 | CC(C)N1C(C)CC[C@H]1C(=O)Nc1cc(C(F)(F)F)ccc1-c1cc(Nc2cccc3c2CC(O)CC3)ncn1 (mixture of isomers) [Example 5, (2S, 5R,S, 7R,S)—N-(2-(6-(7-Hydroxy-5,6,7,8-tetrahydronaphthalen-1-ylamino)pyrimidin-4-yl)-5-(trifluoromethyl)phenyl)-1-isopropyl-5-methylpyrrolidine-2-carboxamide hydrochloride] | < 100 nM
7 | CC(C)CN1C(C)CC[C@H]1C(=O)Nc1cc(C(F)(F)F)ccc1-c1cc(Nc2cccc3c2CC(O)CC3)ncn1 (mixture of isomers) [Example 6, (2S, 5R,S, 7R,S)—N-(2-(6-(7-Hydroxy-5,6,7,8-tetrahydronaphthalen-1-ylamino)pyrimidin-4-yl)-5-(trifluoromethyl)phenyl)-1-isobutyl-5-methylpyrrolidine-2-carboxamide hydrochloride] | < 100 nM
